Laboratory results taken from patent US8501166B2, “Pyrimidinyl indole compounds” (Hutchison Medipharma Limited, priority 2010, dated 2013).
Where a name gives a salt, the structure may show the parent alone.

Experiments:
[1] = test system: OVA-induced airway inflammation; test: Ovalbumin (OVA)-induced pulmonary inflammation in mice; assay type: in vivo, Balb/c mice; settings: dexamethasone 1 mg/kg (qd)
Description: A compound of the present invention is tested in an OVA-induced pulmonary inflammation model in mice essentially as described in a method reported in the literature (Muriel Pichavant, Sho Goya, Eckard Hamelmann, Erwin W. Gelfand, and Dale T. Umetsu. Animal Models of Airway Sensitization. Current Protocols in Immunology. (1999) 15.18.1-15.18.13). Briefly, female Balb/c mice weighing from 18 to 20 g are sensitized by introperitoneal injection of 100 μL of saline containing 20 μg of OVA and 2 mg of aluminum hydroxide on day 1 and 14. On days 28, 29 and 30, mice are challenged once each by aerosolizing 1% ovalbumin (OVA) in phosphate buffered saline (PBS) for 20 minutes with Buxco Mass Dosing System. […] On day 32, animals from each group are anesthetized with 1% of pentobarbital sodium. The thoracic and abdominal cavities are opened and plasma is collected from centrifuged specimens. The trachea is then dissected and transected. Through the insertion of an 18-gauge catheter into the trachea, the lungs are lavaged with a total of 1.5 mL of sterile PBS and then placed into a specimen container. Cell-free BAL supernatants are obtained by centrifugation of BAL fluids. All serum and BAL supernatants are stored at −80° C. until use. Differential cell counts are performed on cytospin preparations of BAL cells for cell counting and cytokine determination. After the collection of BAL supernatants, the lungs of recipient mice are removed en bloc and fixed by an intratracheal instillation of 10% buffered formalin (in PBS). Three to six paraffin sections are obtained from the perihilar regions of recipient lungs, stained with hematoxylin and eosin, and examined under light microscopy for pathological study.

BxPC-3 cells = test: Cell viability test, combination study, BxPC-3; assay type: cell-based, human; settings: for Ave. Inhibition rate: 72 h
Description: (§1) To evaluate biological activity of a compound in vitro, the cell viability test is applied, in which, IKKβ receptor plays an important role in cell survival and proliferation. Once the IKKβ pathway is blocked by inhibitors, a cell can go through apoptosis or death. The cell viability test provides information on cell survival after treatment with IKK inhibitors.
(§2) BxPC-3 cells (ATCC #CRL-1687; human pancreatic cancer cell line) are grown in Roswell Park Memorial Institute (RPMI) 1640 media (Gibco #A10491-01) supplemented with 10% fetal bovine serum (FBS) (Gibco #10099-141). Skov3-luc cells (ATCC, human ovarian carcinoma cell line) are grown in McCoy's 5a medium (Gibco#16600) supplemented with 10% FBS (Gibco#10099-141). For compound testing, BxPc-3 and Skov3-Luc cells are seeded at 2000 and 5000 cells/well respectively in 100 μL of corresponding media specified above for each cell line in 96-well plates 20 h prior to treatment. Cells are treated with a test compound at eight different concentrations in the presence of 0.5% DMSO for 72 h. Cell death in each well is determined by the addition of 20 μL of the One Solution Reagent (CELLTITER 96® AQueous One Solution Cell Proliferation Assay, Promega #G3580). After 2-4 h of incubation at 37° C., optical densities at 492 nm are measured with a microplate reader Inhibition of cell viability is determined by comparison to the control cells treated in the absence of a test compound.
(§3) For the combination study of the compound with other antitumor agents, BxPc-3 and Skov3-Luc cells are seeded at 2000 and 5000 cells/well respectively in 100 μL corresponding media specified above for each cell line in 96-well plates 20 h prior to the treatment. The cells are treated with the test compound at a number of concentrations for 30 minutes and then exposed to 5 ng/mL TNFα or 0.15-0.6 uM of VCR (vincristine sulfate) for an additional 72 hours. Cell death in each well is determined by the addition of 20 μL of the One Solution Reagent (CELLTITER 96® AQueous One Solution Cell Proliferation Assay, Promega #G3580). After 2-4 h of incubation at 37° C., optical densities at 492 nm are measured with a microplate reader Inhibition of cell viability is determined by comparison to the control cells treated in the absence of a test compound. For example, the results of the combination study with Example 1 are specially detailed in Table 2.

Skov3-luc cells = test: Cell viability test, combination study, Skov3-luc; assay type: cell-based; settings: Homo sapiens, 72 h, Vincristine 0.25 μM alone, read-out: Ave. Inhibition rate
Description: as §1, §2
as §3, with “The cells are treated with the test compound at a number of concentrations for 30 minutes and then exposed to 5 ng/mL TNFα or 0.15-0.6 uM of VCR (vincristine sulfate) for an additional 72 hours.” left out, “For example, the results of the combination study with Example 1 are specially detailed in Table 2.” left out

[2] = test system: SKOV-3x-FF-luci human ovarian cancer xenograft; test: Antitumor effect in SKOV-3x-FF-luci xenograft with vincristine (VCR); assay type: in vivo, Balb/c nu/nu mice; settings: VCR alone at suboptimal dose, tail vein, once a week
Description: In order to expand the anti-tumor spectrum, more combination testing is explored. Based on in vitro synergistic effect of Example 1 and VCR, the compound is tested for its anti-tumor effects in SKOV-3x-FF-luci xenograft in the presence/absence of VCR. The SKOV-3x-FF-luci human ovarian cancer line (ATCC) is cultured in McCoy's 5a medium containing 10% FCS. Female Balb/c nu/nu mice (6-7 weeks old) are peritoneally injected with 0.2 mL of cell suspension containing 2×10^6 cells. Mice are divided into nine groups six days after cell implantation. The test compound is orally administered twice a day at 60 mg/kg for 20 consecutive days or at 90 mg/kg with a 2 days on and 5 days off dosing schedule. VCR at 1 or 0.3 mg/kg is administered via tail vein injection, once a week. In the combination group, VCR is given 1 h after the administration of the test compound. Mice from the control group are administered with the oral vehicle (10% Acacia at pH2.1) and intraperitoneally injected with saline. At the end of the treatment, all mice are euthanized with CO2 and tumors in the peritoneal cavity, diaphragmatic muscle, mesenterium, liver, spleen, and ovaries are harvested with surgery scissors and weighted. […] In the combination group, tumor growth is inhibited by 76% and 74%. Compared with monotherapy, statistical significance is found between combination and monotherapy.

With `C[C@@H]1C[C@H]2[C@@H]3CCC4=CC(=O)C=C[C@]4(C)[C@@]3(F)[C@@H](O)C[C@]2(C)[C@@]1(O)C(=O)CO` [Dexamethasone, reference compound] the “decrease of IL-13 in BALF” value [1] was 77%.

For TNFα, the “Ave. Inhibition rate” value (BxPC-3 cells; TNFα 5 ng/mL alone) was 5.73%.

In the case of `CC[C@]1(O)C[C@H]2CN(CCc3c([nH]c4ccccc34)[C@@](C(=O)OC)(c3cc4c(cc3OC)N(C=O)[C@H]3[C@@](O)(C(=O)OC)[C@H](OC(C)=O)[C@]5(CC)C=CCN6CC[C@]43[C@@H]65)C2)C1` [Vincristine, vincristine sulfate, reference compound], the inhibition at 0.25 µM (Skov3-luc cells) was 25%, the inhibition at 0.15 µM (BxPC-3 cells; Homo sapiens, BXPC-3, 72 h, Vincristine 0.15 μM alone, read-out: Ave. Inhibition rate) was 5.73% and the “Ave. Inhibition rate” value (BxPC-3 cells; Vincristine 0.15 μM alone) was 9.48%. It also gave a tumor growth inhibition [2] of 38%.
